According to ChEMBL document CHEMBL1152321, “Recent advances in the chemistry and biology of new generation taxoids” (J Nat Prod, 2009):

Key:
MCF7 [1] = experiment: Cytotoxicity against human MCF7 cells expressing P-glycoprotein after 72 hrs; format: functional, cell-based; conditions: MCF7, 72 h
[2] = Cytotoxicity against P-glycoprotein deficient wild type human LCC-6 cells after 72 hrs; format: functional, cell-based; conditions: LCC-6, 72 h
HT-29 = experiment: Cytotoxicity against human HT-29 cells after 72 hrs; format: functional, cell-based; conditions: HT-29, 72 h
[3] = Resistance factor, ratio of IC50 for human LCC-6 cells expressing P-glycoprotein to IC50 for P-glycoprotein deficient wild type human LCC-6 cells; format: functional; parameters: reference not given here
MCF7 [4] = experiment: Cytotoxicity against P-glycoprotein deficient wild type human MCF7 cells after 72 hrs; format: functional, cell-based; conditions: MCF7, 72 h
MCF7 [5] = experiment: Resistance factor, ratio of IC50 for human MCF7 cells expressing P-glycoprotein to IC50 for P-glycoprotein deficient wild type human MCF7 cells; format: functional

Structure (SMILES) | IC50 [2] | Ratio [3] | other results
CC(=O)O[C@@]12CO[C@@H]1C[C@H](O)[C@@]1(C)C(=O)[C@H](O)C3=C(C)[C@@H](OC(=O)[C@H](O)[C@@H](NC(=O)OC(C)(C)C)c4ccccc4)C[C@@](O)([C@@H](OC(=O)c4ccccc4)[C@H]21)C3(C)C.O.O.O [DOCETAXEL] | 1 nM | – | IC50 (MCF7 [1]): 215 nM; IC50 (HT-29): 1 nM
COc1ccc(CCC(=O)O[C@H]2C(=O)[C@@]3(C)[C@H]([C@H](OC(=O)c4ccccc4)[C@]4(O)C[C@H](OC(=O)[C@H](O)[C@H](C=C(C)C)NC(=O)OC(C)(C)C)C(C)=C2C4(C)C)[C@]2(OC(C)=O)CO[C@@H]2C[C@@H]3O)cc1 | 1.7 nM | 2.9 | –
COC(=O)O[C@H]1C(=O)[C@@]2(C)[C@H]([C@H](OC(=O)c3cccc(N=[N+]=[N-])c3)[C@]3(O)C[C@H](OC(=O)[C@H](O)[C@H](C=C(F)F)NC(=O)OC(C)(C)C)C(C)=C1C3(C)C)[C@]1(OC(C)=O)CO[C@@H]1C[C@@H]2O | – | – | IC50 (MCF7 [1]): 0.4 nM; IC50 (MCF7 [4]): 0.078 nM; Ratio (MCF7 [5]): 5.3
COc1cccc(C(=O)O[C@H]2[C@@H]3[C@]4(OC(C)=O)CO[C@@H]4C[C@H](O)[C@@]3(C)C(=O)[C@H](OC(C)=O)C3=C(C)[C@@H](OC(=O)[C@H](O)[C@H](C=C(C)C)NC(=O)OC(C)(C)C)C[C@]2(O)C3(C)C)c1 | 0.6 nM | – | –
COc1cccc(CCC(=O)O[C@H]2C(=O)[C@@]3(C)[C@H]([C@H](OC(=O)c4ccccc4)[C@]4(O)C[C@H](OC(=O)[C@H](O)[C@H](C=C(C)C)NC(=O)OC(C)(C)C)C(C)=C2C4(C)C)[C@]2(OC(C)=O)CO[C@@H]2C[C@@H]3O)c1 | 3.7 nM | 1.8 | –
CC(=O)O[C@H]1C(=O)[C@@]2(C)[C@H]([C@H](OC(=O)c3cccc(N=[N+]=[N-])c3)[C@]3(O)C[C@H](OC(=O)[C@H](O)[C@H](C=C(F)F)NC(=O)OC(C)(C)C)C(C)=C1C3(C)C)[C@]1(OC(C)=O)CO[C@@H]1C[C@@H]2O | – | – | IC50 (MCF7 [1]): 0.34 nM; IC50 (MCF7 [4]): 0.092 nM; Ratio (MCF7 [5]): 3.7
CC(=O)O[C@@]12CO[C@@H]1C[C@H](O)[C@@]1(C)C(=O)[C@H](OC(=O)c3ccccc3)C3=C(C)[C@@H](OC(=O)[C@H](O)[C@H](C=C(C)C)NC(=O)OC(C)(C)C)C[C@@](O)([C@@H](OC(=O)c4ccccc4)[C@H]21)C3(C)C | 1.8 nM | 2.7 | –
CC(=O)O[C@H]1C(=O)[C@@]2(C)[C@H]([C@H](OC(=O)c3cccc(C)c3)[C@]3(O)C[C@H](OC(=O)[C@H](O)[C@H](C=C(C)C)NC(=O)OC(C)(C)C)C(C)=C1C3(C)C)[C@]1(OC(C)=O)CO[C@@H]1C[C@@H]2O | 1.5 nM | – | –
CC(=O)O[C@@]12CO[C@@H]1C[C@H](O)[C@@]1(C)C(=O)[C@H](OC(=O)c3cccc4ccccc34)C3=C(C)[C@@H](OC(=O)[C@H](O)[C@H](C=C(C)C)NC(=O)OC(C)(C)C)C[C@@](O)([C@@H](OC(=O)c4ccccc4)[C@H]21)C3(C)C | 5.3 nM | 2.9 | –
COc1cccc(C(=O)O[C@H]2C(=O)[C@@]3(C)[C@H]([C@H](OC(=O)c4ccccc4)[C@]4(O)C[C@H](OC(=O)[C@H](O)[C@H](C=C(C)C)NC(=O)OC(C)(C)C)C(C)=C2C4(C)C)[C@]2(OC(C)=O)CO[C@@H]2C[C@@H]3O)c1 | 2.8 nM | 1.8 | –
COC(=O)O[C@H]1C(=O)[C@@]2(C)[C@H]([C@H](OC(=O)c3cccc(OC)c3)[C@]3(O)C[C@H](OC(=O)[C@H](O)[C@H](C=C(F)F)NC(=O)OC(C)(C)C)C(C)=C1C3(C)C)[C@]1(OC(C)=O)CO[C@@H]1C[C@@H]2O | – | – | IC50 (MCF7 [1]): 0.5 nM; IC50 (MCF7 [4]): 0.078 nM; Ratio (MCF7 [5]): 6.4
COc1ccccc1C(=O)O[C@H]1C(=O)[C@@]2(C)[C@H]([C@H](OC(=O)c3ccccc3)[C@]3(O)C[C@H](OC(=O)[C@H](O)[C@H](C=C(C)C)NC(=O)OC(C)(C)C)C(C)=C1C3(C)C)[C@]1(OC(C)=O)CO[C@@H]1C[C@@H]2O | 2.1 nM | 2.7 | –
CCC(=O)O[C@H]1C(=O)[C@@]2(C)[C@H]([C@H](OC(=O)c3cccc(F)c3)[C@]3(O)C[C@H](OC(=O)[C@H](O)[C@H](CC(C)C)NC(=O)OC(C)(C)C)C(C)=C1C3(C)C)[C@]1(OC(C)=O)CO[C@@H]1C[C@@H]2O | 0.4 nM | 6 | –
COc1ccc(C(=O)O[C@H]2C(=O)[C@@]3(C)[C@H]([C@H](OC(=O)c4ccccc4)[C@]4(O)C[C@H](OC(=O)[C@H](O)[C@H](C=C(C)C)NC(=O)OC(C)(C)C)C(C)=C2C4(C)C)[C@]2(OC(C)=O)CO[C@@H]2C[C@@H]3O)cc1 | 3.8 nM | 1.2 | –
CCC(=O)O[C@H]1C(=O)[C@@]2(C)[C@H]([C@H](OC(=O)c3cccc(OC)c3)[C@]3(O)C[C@H](OC(=O)[C@H](O)[C@@H](NC(=O)OC(C)(C)C)[C@H]4CC4(C)C)C(C)=C1C3(C)C)[C@]1(OC(C)=O)CO[C@@H]1C[C@@H]2O | 0.48 nM | – | –
COc1cccc(C(=O)O[C@H]2[C@@H]3[C@]4(OC(C)=O)CO[C@@H]4C[C@H](O)[C@@]3(C)C(=O)[C@H](OC(=O)C3CC3)C3=C(C)[C@@H](OC(=O)[C@H](O)[C@H](C=C(C)C)NC(=O)OC(C)(C)C)C[C@]2(O)C3(C)C)c1 | 1 nM | 2.9 | –

Structure (SMILES) | IC50 [2] | Ratio [3] | other results
CC(=O)O[C@@]12CO[C@@H]1C[C@H](O)[C@@]1(C)C(=O)[C@H](OC(=O)C3CC3)C3=C(C)[C@@H](OC(=O)[C@H](O)[C@H](C=C(F)F)NC(=O)OC(C)(C)C)C[C@@](O)([C@@H](OC(=O)c4cccc(N=[N+]=[N-])c4)[C@H]21)C3(C)C | – | – | IC50 (MCF7 [1]): 0.45 nM; IC50 (MCF7 [4]): 0.092 nM; Ratio (MCF7 [5]): 4.9
CC(=O)O[C@@]12CO[C@@H]1C[C@H](O)[C@@]1(C)C(=O)[C@H](OC(=O)c3ccc4ccccc4c3)C3=C(C)[C@@H](OC(=O)[C@H](O)[C@H](C=C(C)C)NC(=O)OC(C)(C)C)C[C@@](O)([C@@H](OC(=O)c4ccccc4)[C@H]21)C3(C)C | 6.3 nM | 2.4 | –
COc1cccc(C(=O)O[C@H]2[C@@H]3[C@]4(OC(C)=O)CO[C@@H]4C[C@H](O)[C@@]3(C)C(=O)[C@H](OC(=O)C3CC3)C3=C(C)[C@@H](OC(=O)[C@H](O)[C@H](C=C(F)F)NC(=O)OC(C)(C)C)C[C@]2(O)C3(C)C)c1 | – | – | IC50 (MCF7 [1]): 0.48 nM; IC50 (MCF7 [4]): 0.092 nM; Ratio (MCF7 [5]): 5.2
C/C=C/[C@H](NC(=O)OC(C)(C)C)[C@@H](O)C(=O)O[C@H]1C[C@@]2(O)[C@@H](OC(=O)c3cccc(OC)c3)[C@@H]3[C@]4(OC(C)=O)CO[C@@H]4C[C@H](O)[C@@]3(C)C(=O)[C@H](OC(=O)CC)C(=C1C)C2(C)C | 1.2 nM | – | –
CC(=O)O[C@@]12CO[C@@H]1C[C@H](O)[C@@]1(C)C(=O)[C@H](OC(=O)CCc3ccccc3)C3=C(C)[C@@H](OC(=O)[C@H](O)[C@H](C=C(C)C)NC(=O)OC(C)(C)C)C[C@@](O)([C@@H](OC(=O)c4ccccc4)[C@H]21)C3(C)C | 5.1 nM | 6.1 | –
COc1cccc(CC(=O)O[C@H]2C(=O)[C@@]3(C)[C@H]([C@H](OC(=O)c4ccccc4)[C@]4(O)C[C@H](OC(=O)[C@H](O)[C@H](C=C(C)C)NC(=O)OC(C)(C)C)C(C)=C2C4(C)C)[C@]2(OC(C)=O)CO[C@@H]2C[C@@H]3O)c1 | 2.1 nM | 9.7 | –
CCC(=O)O[C@H]1C(=O)[C@@]2(C)[C@H]([C@H](OC(=O)c3cccc(N=[N+]=[N-])c3)[C@]3(O)C[C@H](OC(=O)[C@H](O)[C@H](CC(C)C)NC(=O)OC(C)(C)C)C(C)=C1C3(C)C)[C@]1(OC(C)=O)CO[C@@H]1C[C@@H]2O | 1.1 nM | – | –
C=Cc1cccc(C(=O)O[C@H]2[C@@H]3[C@]4(OC(C)=O)CO[C@@H]4C[C@H](O)[C@@]3(C)C(=O)[C@H](OC(=O)CC)C3=C(C)[C@@H](OC(=O)[C@H](O)[C@H](C=C(C)C)NC(=O)OC(C)(C)C)C[C@]2(O)C3(C)C)c1 | 2.9 nM | – | –
CC(=O)O[C@@]12CO[C@@H]1C[C@H](O)[C@@]1(C)C(=O)[C@H](OC(=O)OCc3ccccc3)C3=C(C)[C@@H](OC(=O)[C@H](O)[C@H](C=C(C)C)NC(=O)OC(C)(C)C)C[C@@](O)([C@@H](OC(=O)c4ccccc4)[C@H]21)C3(C)C | 1.8 nM | 9.3 | –
CCC(=O)O[C@H]1C(=O)[C@@]2(C)[C@H]([C@H](OC(=O)c3cccc(OC)c3)[C@]3(O)C[C@H](OC(=O)[C@H](O)[C@H](C=C(F)F)NC(=O)OC(C)(C)C)C(C)=C1C3(C)C)[C@]1(OC(C)=O)CO[C@@H]1C[C@@H]2O | – | – | IC50 (MCF7 [1]): 0.57 nM; IC50 (MCF7 [4]): 0.34 nM; Ratio (MCF7 [5]): 1.7
COc1ccccc1CC(=O)O[C@H]1C(=O)[C@@]2(C)[C@H]([C@H](OC(=O)c3ccccc3)[C@]3(O)C[C@H](OC(=O)[C@H](O)[C@H](C=C(C)C)NC(=O)OC(C)(C)C)C(C)=C1C3(C)C)[C@]1(OC(C)=O)CO[C@@H]1C[C@@H]2O | 2.3 nM | 6 | –
CCC(=O)O[C@H]1C(=O)[C@@]2(C)[C@H]([C@H](OC(=O)c3cccc(N=[N+]=[N-])c3)[C@]3(O)C[C@H](OC(=O)[C@H](O)[C@H](C=C(C)C)NC(=O)OC(C)(C)C)C(C)=C1C3(C)C)[C@]1(OC(C)=O)CO[C@@H]1C[C@@H]2O | 0.9 nM | – | –
CCC(=O)O[C@H]1C(=O)[C@@]2(C)[C@H]([C@H](OC(=O)c3cccc(F)c3)[C@]3(O)C[C@H](OC(=O)[C@H](O)[C@H](C=C(C)C)NC(=O)OC(C)(C)C)C(C)=C1C3(C)C)[C@]1(OC(C)=O)CO[C@@H]1C[C@@H]2O | 0.5 nM | – | –
CCC(=O)O[C@H]1C(=O)[C@@]2(C)[C@H]([C@H](OC(=O)c3cccc(Cl)c3)[C@]3(O)C[C@H](OC(=O)[C@H](O)[C@H](C=C(C)C)NC(=O)OC(C)(C)C)C(C)=C1C3(C)C)[C@]1(OC(C)=O)CO[C@@H]1C[C@@H]2O | 0.8 nM | – | –
COc1ccccc1CCC(=O)O[C@H]1C(=O)[C@@]2(C)[C@H]([C@H](OC(=O)c3ccccc3)[C@]3(O)C[C@H](OC(=O)[C@H](O)[C@H](C=C(C)C)NC(=O)OC(C)(C)C)C(C)=C1C3(C)C)[C@]1(OC(C)=O)CO[C@@H]1C[C@@H]2O | 1.5 nM | 3.3 | –
